Data taken from patent publication US10363239B2, “Method for inhibiting growth of cancer cells” (Pain Therapeutics, Inc., priority 2013, dated 2019).

Assays:
[1] = tested on: non-small cell lung cancer cell lines; experiment: Glucose utilization; assay type: cell-based, human; conditions: data not shown
Description: To determine the effect of Compound C0105 on glucose utilization, the cancer and primary normal cells were plated extremely thinly (10%). Once cells attached, Compound C0105 was added at 0.1, 0.5, 1 or 5 nM in the medium twice daily (6 hours apart) for 4 days. The cells were serum-deprived (glucose deprived) for 2 hours. Cells were then rinsed with 1 ml PBS and glucose uptake was assessed by contacting the cells with [^3H]glucose (0.01 uCi/l ml) in Kreb's Ringer for 2 hours. Cells were then rinsed with 1 ml PBS 3 times, scraped off and their glucose content counted by liquid scintillation spectrophotometry.
. Primary lung fibroblast cells were used as control, non-cancerous cells to illustrate the difference in effects observed (FIG. 1C, FIGS. 1H-1I).

[2] = tested on: pS2152FLNA, FLNA-associated PTEN and PP2A in pancreatic cancer MiaPaCa2 cells; experiment: pS2152FLNA and FLNA-associated PTEN and PP2A in anti-FLNA immunoprecipitate (Western blotting); assay type: cell-based, human; conditions: 0.1-5 nM; 4 days
Description: The effect of contact with Compound C0105 on the levels of pS^2152FLNA and FLNA-associated phosphatases, PTEN and PP2A subclasses was determined in MiaPaCa2 and HPECs. Cells were contacted with vehicle and 0.1-5 nM Compound C0105 for 4 days. Cells were washed, solubilized and the cell lysate derived was immunoprecipitated with anti-FLNA. The levels of […] and FLNA-associated phosphatases, PTEN and PP2A subclasses in the anti-FLNA immunoprecipitate were determined by Western blotting. The density of protein bands was quantified by densitometric scan. […] Data are expressed as mean±S.E.M. of ratios (FIGS. 27C, 27E and 27G) and percentage inhibition (FIGS. 27D, 27F and 27H). […] N=4. **p<0.05, *p<0.01 compared to vehicle (open bars). […]
The cell lysates were diluted 5-fold with immunoprecipitation buffer and immunoprecipitated with anti-FLNA, -Akt, -mTOR and -ERK2 as described previously [Talbot et al., J Clin Inv 122(4):1-23 (2012); Wang et al., J Neurosci 32(29):9773-9784 (2012)]. The levels of FLNA linkages, activated phosphorylated Akt (pS^473 and pT^308), phosphorylated mTOR (pS^2448) and phosphorylated ERK2 (pY/pT) were determined in anti-FLNA, -Akt, -mTOR and -ERK2 immunoprecipitates by Western blotting with appropriate antibodies directed against PTEN, PP2A, K-RAS, ras-GAP (FLNA linkages), pS^473Akt, pT^308Akt, pS^2448mTOR and pY/pT ERK2 (activation of Akt, mTOR and ERK2).

MiaPaCa2 cell implants = experiment: Xenograft survival study; assay type: in vivo, Nu/Nu mice; conditions: 100 mg/kg
Description: FIGS. 34A and 34B illustrate Kaplan-Meier survival curves (FIG. 34A) and averaged tumor volumes (FIG. 34B) in a xenograft study in which MiaPaCa2 cells were implanted in Nu/Nu mice. […] FIG. 34B illustrates average tumor volumes (mm3) in mice treated with vehicle alone (black diamonds), gemcitabine (open squares), Compound C0105 at 10 mg/kg (black triangles) and Compound C0105 at 100 mg/kg (open diamonds).
Mice were monitored individually and the treatment effect was compared to each mouse's own original tumor on the treatment day 0. The endpoint of the study was a tumor volume of 1500 mm^3 or 45 days, whichever comes first. The animals were euthanized when the endpoint was reached. Responders were followed longer (survival study). The Table below illustrates the drug treatment administered to the mice.
A third xenograft study was designed to measure survival rather than tumor volume at a designated time point.

[3] = tested on: GTP-bound K-ras in melanoma cells; experiment: Active K-ras (GTP-bound K-ras) Raf1 RBD pull-down assay; assay type: cell-based, human; conditions: 0.1, 0.5, 1 and 5 nM; 4-day treatment
Description: (§1) FIGS. 31A and 31B illustrate the effects of illustrative Compound C0105 on levels of active K-ras (GTP-bound K-ras), assessed using the agarose bead-bound Raf1 RBD pull-down assay in melanoma, two different pancreatic cancerous cell lines (MiaPaCa2 and BxPc3) and a glioblastoma cell line (U87). The cells were treated (contacted) with zero (vehicle), 0.1, 0.5, 1 and 5 nM Compound C0105 as previously discussed. The thus obtained GTP-bound K-ras was subjected to Western blotting using anti-ras antibodies for identification, the blot densities determined and statistically analyzed as discussed previously.
(§2) In a separate series of studies, the level of active K-RAS (GTP-bound K-RAS) was determined by precipitation using Raf RBD-conjugated agarose beads from 100 μg of lysates of cancer cells (prepared as described above) following 4-day treatment with varying concentrations of Compound C0105. To ascertain even loading, actin in the cell lysates was immunoprecipitated with goat anti-actin. The precipitates were collected by centrifugation, washed and the active K-RAS and actin eluted by boiling for 5 min in 1×SDS-PAGE. The levels of active K-RAS and actin in 50 μg of cell lysates were size-fractionated on 12% SDS-PAGE, electrophorectically transferred to nitrocellulose membranes and determined by Western blotting with specific monoclonal antibodies against K-RAS and actin.

[4] = tested on: GTP-bound K-ras in glioblastoma cell line (U87); experiment: as above; assay type: cell-based, human; conditions: 0.1, 0.5, 1 and 5 nM; 4-day treatment
Description: as §1, §2

[5] = tested on: GTP-bound K-ras in BxPc3 cells; experiment: as above; assay type: cell-based, human; conditions: 0.1, 0.5, 1 and 5 nM; 4-day treatment
Description: as §1, §2

[6] = tested on: GTP-bound K-ras in MiaPaCa2 cells; experiment: as above; assay type: cell-based, human; conditions: 0.1, 0.5, 1 and 5 nM; 4-day treatment
Description: as §1, §2

[7] = tested on: small-cell lung carcinoma cells; experiment: Cell proliferation by cell-cycling markers Ki67 and PCNA (Western blots); assay type: cell-based, human; conditions: 0.1-5 nM; 4 days

CN1CCC2(CC1)NCC(=O)N2Cc1ccccc1 [Compound C0105]
Glucose utilization [1]: decreased the elevated glucose utilization | FLNA-associated PTEN and PP2A levels [2]: increases FLNA-associated PTEN and PP2A levels | pS2152FLNA level [2]: reduces pS^2152FLNA | Tumors shrunk to undetectable (MiaPaCa2 cell implants): completely shrunk tumors to being undetectable in three high-dose (100 mg/kg) mice | Tumor shrinkage compared to mice receiving vehicle (MiaPaCa2 cell implants; mouse found dead at 30 days): more than 90% | GTP-bound K-ras (active K-ras) level [3]: reduced GTP-bound K-ras | GTP-bound K-ras (active K-ras) level [4]: reduced GTP-bound K-ras | GTP-bound K-ras (active K-ras) level [5]: reduced GTP-bound K-ras | GTP-bound K-ras (active K-ras) level [6]: reduced GTP-bound K-ras | Cell proliferation (Ki67 and PCNA levels) [7]: reduces cell proliferation
